Laboratory results taken from US9284321B2, “Piperazino[1,2-a]indol-1-ones and [1,4]diazepino[1,2-a]indol-1-one” (Hoffmann-La Roche Inc., priority 2012, dated 2016).

Tests used:
[1] = system: human embryonic stem cell derived neural stem cells (NSCs); assay: Neural Stem Cell Proliferation Assay (neurogenesis assay, ATP levels by CellTiterGlo); type: cell-based; details: 96 h, compound concentration at which 150% activity of control (100%) is reached, NSC proliferation by ATP level after 4 days incubation, dose response 8 μM to 8 nM
In short: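 Human ESC-derived NSCs (dual SMAD inhibition) seeded 4 h before compounds, 11-point 2-fold series 8 μM–8 nM; 4 days at 37 °C, 5% CO2. ATP by CellTiterGlo luminescence as cell-number proxy, response as % of media control (0.25% DMSO); EC150 = concentration giving 150% of control.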

| Structure (SMILES) | EC (150% of control) [1] | melting point |
| --- | --- | --- |
| Cc1c2n(c3c(-c4ccc(OC(F)(F)F)cc4)cc(C#N)cc13)CCCNC2=O [Example 201, 11-Methyl-1-oxo-7-[4-(trifluoromethoxy)-phenyl]-2,3,4,5-tetrahydro-[1,4]diazepino[1,2-a]indole-9-carbonitrile] | 0.048 µM | 218 °C |
| N#Cc1cc(-c2ccc(F)c(F)c2F)c2c(c1)cc1n2CCNC1=O [Example 202, 1-Oxo-6-(2,3,4-trifluorophenyl)-3,4-dihydro-2H-pyrazino[1,2-a]indole-8-carbonitrile] | 0.046 µM | 294 °C |
| N#Cc1cc(-c2ccc(F)nc2)c2c(c1)cc1n2CCNC1=O [Example 203, 6-(6-Fluoropyridin-3-yl)-1-oxo-3,4-dihydro-2H-pyrazino[1,2-a]indole-8-carbonitrile] | 0.36 µM | 268 °C |
| N#Cc1cc(-c2ccc(Cl)c(C(F)(F)F)c2)c2c(c1)cc1n2CCNC1=O [Example 204, 6-[4-Chloro-3-(trifluoromethyl)phenyl]-1-oxo-3,4-dihydro-2H-pyrazino[1,2-a]indole-8-carbonitrile] | 1.28 µM | 347 °C |
| Cc1c2n(c3c(-c4ccc(F)cc4F)cc(C#N)cc13)CCCNC2=O [Example 205, 7-(2,4-Difluorophenyl)-11-methyl-1-oxo-2,3,4,5-tetrahydro-[1,4]diazepino[1,2-a]indole-9-carbonitrile] | 0.031 µM | 225 °C |
| Cc1c2n(c3c(-c4ccc(Cl)cc4Cl)cc(C#N)cc13)CCCNC2=O [Example 206, 7-(2,4-Dichlorophenyl)-11-methyl-1-oxo-2,3,4,5-tetrahydro-[1,4]diazepino[1,2-a]indole-9-carbonitrile] | 0.031 µM | 257 °C |
| Cc1c2n(c3c(-c4ccc(Cl)cc4F)cc(C#N)cc13)CCCNC2=O [Example 207, 7-(4-Chloro-2-fluorophenyl)-11-methyl-1-oxo-2,3,4,5-tetrahydro-[1,4]diazepino[1,2-a]indole-9-carbonitrile] | 0.019 µM | 259 °C |
| Cc1c2n(c3c(-c4ccnc(F)c4)cc(C#N)cc13)CCCNC2=O [Example 208, 7-(2-Fluoropyridin-4-yl)-11-methyl-1-oxo-2,3,4,5-tetrahydro-[1,4]diazepino[1,2-a]indole-9-carbonitrile] | 0.049 µM | 264 °C |
| Cc1c2n(c3c(-c4ccc(F)nc4)cc(C#N)cc13)CCCNC2=O [Example 209, 7-(6-Fluoropyridin-3-yl)-11-methyl-1-oxo-2,3,4,5-tetrahydro-[1,4]diazepino[1,2-a]indole-9-carbonitrile] | 0.16 µM | 280 °C |
| COc1cc(-c2ccc(F)cc2)c2c(c1)cc1n2CCNC1=O [Example 210, 6-(4-Fluorophenyl)-8-methoxy-3,4-dihydro-2H-pyrazino[1,2-a]indol-1-one] | 2.29 µM | 220 °C |
| COc1cc(-c2ccc(Cl)cc2)c2c(c1)cc1n2CCNC1=O [Example 211, 6-(4-Chlorophenyl)-8-methoxy-3,4-dihydro-2H-pyrazino[1,2-a]indol-1-one] | 1.54 µM | 246 °C |
| COc1cc(-c2ccc(F)c(F)c2)c2c(c1)cc1n2CCNC1=O [Example 212, 6-(3,4-Difluorophenyl)-8-methoxy-3,4-dihydro-2H-pyrazino[1,2-a]indol-1-one] | 1.24 µM | 216 °C |
| COc1cc(-c2ccc(C(F)(F)F)cc2)c2c(c1)cc1n2CCNC1=O [Example 213, 8-Methoxy-6-[4-(trifluoromethyl)-phenyl]-3,4-dihydro-2H-pyrazino[1,2-a]indol-1-one] | 0.8 µM | 276 °C |
| N#Cc1cc(-c2ccc(Cl)cc2)c2c(c1)cc1n2CCCNC1=O [Example 214, 7-(4-Chlorophenyl)-1-oxo-2,3,4,5-tetrahydro-[1,4]diazepino[1,2-a]indole-9-carbonitrile] | 0.14 µM | 245.5 °C |
| N#Cc1cc(-c2ccc(F)cc2)c2c(c1)cc1n2CCCNC1=O [Example 215, 7-(4-Fluorophenyl)-1-oxo-2,3,4,5-tetrahydro-[1,4]diazepino[1,2-a]indole-9-carbonitrile] | 0.09 µM | 230 °C |
| O=C1NCCn2c1cc1cc(OC(F)(F)F)cc(-c3ccc(C(F)(F)F)cc3)c12 [Example 216, 8-(Trifluoromethoxy)-6-[4-(trifluoromethyl)-phenyl]-3,4-dihydro-2H-pyrazino[1,2-a]indol-1-one] | 0.022 µM | 243 °C |
| N#Cc1cc(-c2ccc(F)c(F)c2)c2c(c1)cc1n2CCCNC1=O [Example 217, 7-(3,4-Difluorophenyl)-1-oxo-2,3,4,5-tetrahydro-[1,4]diazepino[1,2-a]indole-9-carbonitrile] | 0.51 µM | 224.5 °C |

| Structure (SMILES) | EC (150% of control) [1] | melting point |
| --- | --- | --- |
| N#Cc1cc(-c2ccc(C(F)(F)F)cc2)c2c(c1)cc1n2CCCNC1=O [Example 218, 1-Oxo-7-[4-(trifluoromethyl)-phenyl]-2,3,4,5-tetrahydro-[1,4]diazepino[1,2-a]indole-9-carbonitrile] | 0.45 µM | 241.5 °C |
| N#Cc1cc(-c2ccc(Cl)cc2F)c2c(c1)cc1n2CCCNC1=O [Example 219, 7-(4-Chloro-2-fluorophenyl)-1-oxo-2,3,4,5-tetrahydro-[1,4]diazepino[1,2-a]indole-9-carbonitrile] | 0.08 µM | 217.5 °C |
| N#Cc1cc(-c2ccnc(F)c2)c2c(c1)cc1n2CCCNC1=O [Example 220, 7-(2-Fluoropyridin-4-yl)-1-oxo-2,3,4,5-tetrahydro-[1,4]diazepino[1,2-a]indole-9-carbonitrile] | 0.5 µM | 275 °C |
| N#Cc1cc(-c2ccc(F)cc2F)c2c(c1)cc1n2CCCNC1=O [Example 221, 7-(2,4-Difluorophenyl)-1-oxo-2,3,4,5-tetrahydro-[1,4]diazepino[1,2-a]indole-9-carbonitrile] | 0.073 µM | 216.5 °C |
| N#Cc1cc(-c2cc(F)cc(F)c2)c2c(c1)cc1n2CCNC1=O [Example 222, 6-(3,5-Difluorophenyl)-1-oxo-3,4-dihydro-2H-pyrazino[1,2-a]indole-8-carbonitrile] | 0.22 µM | 264 °C |
| N#Cc1cc(-c2cccc(F)c2)c2c(c1)cc1n2CCNC1=O [Example 223, 6-(3-Fluorophenyl)-1-oxo-3,4-dihydro-2H-pyrazino[1,2-a]indole-8-carbonitrile] | 0.076 µM | 248.5 °C |
| N#Cc1cc(-c2ccc(N)nc2)c2c(c1)cc1n2CCNC1=O [Example 224, 6-(6-Aminopyridin-3-yl)-1-oxo-3,4-dihydro-2H-pyrazino[1,2-a]indole-8-carbonitrile] | 0.76 µM | 305 °C |
| N#Cc1cc(-c2cncnc2)c2c(c1)cc1n2CCNC1=O [Example 225, 1-Oxo-6-pyrimidin-5-yl-3,4-dihydro-2H-pyrazino[1,2-a]indole-8-carbonitrile] | 1.75 µM | 323.5 °C |
| N#Cc1cc(-c2ccc(Cl)nc2)c2c(c1)cc1n2CCNC1=O [Example 226, 6-(6-Chloropyridin-3-yl)-1-oxo-3,4-dihydro-2H-pyrazino[1,2-a]indole-8-carbonitrile] | 2.2 µM | 300.5 °C |
| N#Cc1cc(-c2ccnc(Cl)c2)c2c(c1)cc1n2CCNC1=O [Example 227, 6-(2-Chloropyridin-4-yl)-1-oxo-3,4-dihydro-2H-pyrazino[1,2-a]indole-8-carbonitrile] | 0.55 µM | 286 °C |
| N#Cc1cc(-c2ccc(CO)cc2)c2c(c1)cc1n2CCNC1=O [Example 228, 6-[4-(Hydroxymethyl)-phenyl]-1-oxo-3,4-dihydro-2H-pyrazino[1,2-a]indole-8-carbonitrile] | 0.041 µM | 257.5 °C |
| N#Cc1cc(-c2cccnc2)c2c(c1)cc1n2CCNC1=O [Example 229, 1-Oxo-6-pyridin-3-yl-3,4-dihydro-2H-pyrazino[1,2-a]indole-8-carbonitrile] | 0.94 µM | 272.5 °C |
| CC(C)(C)c1ccc(-c2cc(C#N)cc3cc4n(c23)CCNC4=O)cc1 [Example 230, 6-(4-tert-Butylphenyl)-1-oxo-3,4-dihydro-2H-pyrazino[1,2-a]indole-8-carbonitrile] | 0.14 µM | 300 °C |
| Cc1cc(-c2cc(C#N)cc3cc4n(c23)CCNC4=O)ccc1F [Example 231, 6-(4-Fluoro-3-methylphenyl)-1-oxo-3,4-dihydro-2H-pyrazino[1,2-a]indole-8-carbonitrile] | 0.058 µM | 290 °C |
| N#Cc1cc(-c2ccc([N+](=O)[O-])cc2)c2c(c1)cc1n2CCNC1=O [Example 232, 6-(4-Nitrophenyl)-1-oxo-3,4-dihydro-2H-pyrazino[1,2-a]indole-8-carbonitrile] | 0.02 µM | 369.5 °C |
| Cc1ccc(-c2cc(C#N)cc3cc4n(c23)CCNC4=O)cc1F [Example 233, 6-(3-Fluoro-4-methylphenyl)-1-oxo-3,4-dihydro-2H-pyrazino[1,2-a]indole-8-carbonitrile] | 0.052 µM | 278.5 °C |
| N#Cc1cc(-c2ccc([N+](=O)[O-])cc2)c2c(c1)cc1n2CCCNC1=O [Example 234, 7-(4-Nitrophenyl)-1-oxo-2,3,4,5-tetrahydro-[1,4]diazepino[1,2-a]indole-9-carbonitrile] | 0.21 µM | 193.5 °C |
